The source of these data is ChEMBL document CHEMBL4842340, “Development of Cagrilintide, a Long-Acting Amylin Analogue” (J Med Chem, 2021).

In brackets after ≈: the same amount, converted by molar mass. *1 amine or outer side, *2 acyl side, *3 side chain or, on linkers, in order; H or OH if unused. Where a SMILES comes first, the peptide text is derived from it. Bridges are numbered along the chain shown (N, C = ends). The star is where a group is joined. C20 diacid = O=C(O)CCCCCCCCCCCCCCCCCCC(=O)*; γGlu = O=C(O)[C@H](CCC(=O)[*:2])N[*:1]

Data set [1] can be described thus: Agonist activity at human AMY3R (CT+RAMP3) expressed in Hollex1 cells incubated for 3 hrs by luminescence assay. Format: cell-based. The note with it: Hollex1, 3 h.
Data set [2] is described as follows: Agonist activity at human calcitonin receptor expressed in BHK570 cells assessed as increase in intracellular cAMP concentration incubated for 3 hrs in absence of albumin by CRE luciferase reporter gene assay. The note with it: BHK570, 3 h. It counts as cell-based. Background: In a reporter assay the amount or activity of a reporter protein is the signal.
The species entered for data set [3] is Homo sapiens. Put plainly: Ratio of EC50 for human calcitonin receptor expressed in BHK570 cells to EC50 for human AMY3R (CT+RAMP3) expressed in Hollex1 cells. It counts as cell-based.
Data set [4] is described as follows: Agonist activity at rat AMY3R (CT+RAMP3) expressed in tk-ts13 cells assessed as increase in intracellular cAMP level incuabted for 25 mins by CRE luciferase reporter gene assay. It counts as cell-based. As to conditions: tk-ts13, 25 min. (In general: Changes in cAMP serve as a functional read-out for many G protein-coupled receptors.)
The nature of data set [5]: Agonist activity at rat calcitonin receptor expressed in BHK-13 cells assessed as increase in intracellular cAMP concentration incubated for 25 mins by CRE luciferase reporter gene assay. As to conditions: BHK-13, 25 min. Format: cell-based.
The nature of data set [6]: Displacement of [125I]-calcitonin from human calcitonin receptor expressed in tk-ts 13 cells measured after 120 mins by scintillation proximity assay. It counts as cell-based. As to conditions: tk-ts13. For orientation: Displacement assays read how much labelled ligand stays bound in the presence of the test substance.
The species entered for data set [7] is Homo sapiens. The experiment in a line: Ratio of IC50 for displacement of [125I]-calcitonin from human calcitonin receptor expressed in tk-ts 13 cells to IC50 for displacement of [125I]-amylin from human AMY3R (CTR+RAMP3) expressed in BHK-13 cells. It counts as cell-based.
A short description of data set [8]: Displacement of [125I]-amylin from rat AMY3R (CTR+RAMP3) expressed in BHK-13 cells measured after 120 mins by scintillation proximity assay. Format: cell-based.
A short description of data set [9]: Displacement of [125I]-calcitonin from rat calcitonin receptor expressed in tk-ts 13 cells measured after 120 mins by scintillation proximity assay. Format: cell-based. As to conditions: tk-ts13.
Data set [10] is filed under the species Rattus norvegicus. The experiment in a line: Ratio of IC50 for displacement of [125I]-calcitonin from rat calcitonin receptor expressed in tk-ts 13 cells to IC50 for displacement of [125I]-amylin from rat AMY3R (CTR+RAMP3) expressed in BHK-13 cells. It counts as cell-based.
In data set [11] the target is Insulin (Homo sapiens) (UniProt P01308). The experiment in a line: Effect on insulin (unknown origin) amyloid fibril formation assessed as lag time in glycyl-glycine buffer at pH 4 measured after 45 hrs by thioflavin-T fluorescence assay.
Data set [12] has the same target. The experiment in a line: Effect on insulin (unknown origin) amyloid fibril formation assessed as peptide recovery in glycyl-glycine buffer at pH 4 measured after 45 hrs by thioflavin-T fluorescence assay relative to control. Details: concentration or dose not given beside the values.
Data set [13] is filed under the species Rattus norvegicus. The experiment in a line: Ratio of EC50 for rat calcitonin receptor expressed in BHK-13 cells to EC50 for rat AMY3R (CT+RAMP3) expressed in tk-ts13 cells. Format: cell-based.
Data set [14] in a line: Displacement of [125I]-amylin from human AMY3R (CTR+RAMP3) expressed in BHK-13 cells measured after 120 mins by scintillation proximity assay. Format: cell-based.
Data set [15] is described as follows: Solubility of the compound in lactate at pH 3 by UPLC analysis. It counts as physicochemical. The note with it: lactate buffer.
Data set [16] can be described thus: Solubility of the compound in lactate at pH 4 by UPLC analysis. It counts as physicochemical. The note with it: lactate buffer.
Data set [17] has as its system Rattus norvegicus. The experiment in a line: Reduction in food intake in Sprague-Dawley rat at 3 nmol/kg, sc administered as single dose measured upto 24 hrs relative to control. Format: functional. Set-up: scale not given: the % may be the effect or the level left. As to conditions: time hrs <=24.
The subject of data set [18] is Rattus norvegicus. The experiment in a line: Reduction in food intake in Sprague-Dawley rat at 3 nmol/kg, sc administered as single dose measured after 24 to 48 hrs relative to control. Format: functional. As to conditions: time 24-48 hrs. Details: scale not given: the % may be the effect or the level left.
The nature of data set [19]: Solubility of the compound in lactate at pH 5 by UPLC analysis. It counts as physicochemical. The note with it: lactate buffer.
The nature of data set [20]: Solubility of the compound in bis-tris propane at pH 6 by UPLC analysis. It counts as physicochemical. As to conditions: bis-tris propane buffer.
The nature of data set [21]: Solubility of the compound in bis-tris propane at pH 6.5 by UPLC analysis. Format: physicochemical. The note with it: bis-tris propane buffer.
Data set [22] in a line: Solubility of the compound in bis-tris propane at pH 7 by UPLC analysis. It counts as physicochemical. As to conditions: bis-tris propane buffer.

Chain of Insulin (Homo sapiens) (P01308 whole entry): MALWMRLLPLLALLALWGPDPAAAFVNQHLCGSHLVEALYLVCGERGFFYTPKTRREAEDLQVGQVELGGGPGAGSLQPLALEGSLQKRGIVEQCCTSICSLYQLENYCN

Consider `CC(C)C[C@H](NC(=O)[C@H](CCCCN)NC(=O)CNC(=O)[C@H](CC(C)C)NC(=O)[C@@H](NC(=O)[C@@H]1CSSC[C@H](N)C(=O)N[C@@H](CO)C(=O)N[C@@H](CC(N)=O)C(=O)N[C@@H](CC(C)C)C(=O)N[C@@H](CO)C(=O)N[C@@H]([C@@H](C)O)C(=O)N1)C(C)C)C(=O)N[C@@H](CO)C(=O)N[C@@H](CCC(N)=O)C(=O)N[C@@H](CCC(=O)O)C(=O)N[C@@H](CC(C)C)C(=O)N[C@@H](Cc1c[nH]cn1)C(=O)N[C@@H](CCCCN)C(=O)N[C@@H](CC(C)C)C(=O)N[C@@H](CCC(N)=O)C(=O)N[C@H](C(=O)N[C@@H](Cc1ccc(O)cc1)C(=O)N1CCC[C@H]1C(=O)N[C@@H](CCCNC(=N)N)C(=O)N[C@H](C(=O)N[C@@H](CC(N)=O)C(=O)N[C@H](C(=O)NCC(=O)N[C@@H](CO)C(=O)NCC(=O)N[C@H](C(=O)N1CCC[C@H]1C(N)=O)[C@@H](C)O)[C@@H](C)O)[C@@H](C)O)[C@@H](C)O` [CALCITONIN SALMON], for which the EC50 amounted to 2 pM in [1], 3 pM in data set [2], 1 pM in data set [4] and 0.1 pM in data set [5]. The Ratio EC50 in the data set listed under Homo sapiens [3] was 2. The half-maximal inhibitory concentration (IC50) worked out at 66 pM in data set [6], 28 pM in [8] and 30 pM in data set [9]. Further, the Ratio IC50 in the data set filed under Homo sapiens [7] and in the data set filed under Rattus norvegicus [10] was 1 in each case.

For `CC[C@H](C)[C@H](NC(=O)[C@@H](CCC(=O)O)NC(=O)CNC(=O)[C@H](Cc1ccccc1)NC(=O)[C@H](CC(N)=O)NC(=O)[C@H](CC(N)=O)NC(=O)[C@H](CO)NC(=O)[C@H](CO)NC(=O)[C@H](CCCNC(=N)N)NC(=O)[C@H](Cc1cnc[nH]1)NC(=O)[C@H](CC(C)C)NC(=O)[C@H](Cc1ccccc1)NC(=O)[C@H](CCC(=O)O)NC(=O)[C@H](C)NC(=O)[C@H](CC(C)C)NC(=O)[C@H](CCCNC(=N)N)NC(=O)[C@H](CCC(N)=O)NC(=O)[C@@H](NC(=O)[C@H](C)NC(=O)[C@@H]1CSSC[C@H](NC(=O)[C@H](Cc2cnc[nH]2)NC(=O)CC[C@H](NC(=O)CCCCCCCCCCCCCCCCCCC(=O)O)C(=O)O)C(=O)N[C@@H](CC(N)=O)C(=O)N[C@@H]([C@@H](C)O)C(=O)N[C@@H](C)C(=O)N[C@@H]([C@@H](C)O)C(=O)N1)[C@H](C)O)C(=O)N[C@@H](CC(C)C)C(=O)N[C@@H](CO)C(=O)N[C@@H](CCCNC(=N)N)C(=O)N[C@H](C(=O)N[C@@H](CC(N)=O)C(=O)N[C@H](C(=O)NCC(=O)N[C@@H](CO)C(=O)N[C@@H](CC(N)=O)C(=O)N[C@H](C(=O)N[C@@H](Cc1ccc(O)cc1)C(N)=O)[C@@H](C)O)C(C)C)[C@@H](C)O`, the Ratio EC50 in the data set listed under Homo sapiens [3] was found to be 2. Also, the Ratio IC50 in the data set filed under Homo sapiens [7] came out at 2; in the data set listed under Rattus norvegicus [10], 3. At Insulin (Homo sapiens) [11], the TIME stood at 0 h. In addition, the Activity at Insulin (Homo sapiens) [12] is 0%.

As for `CC[C@H](C)[C@H](NC(=O)[C@@H]1CCCN1C(=O)CNC(=O)[C@H](Cc1ccccc1)NC(=O)[C@H](CC(N)=O)NC(=O)[C@H](CC(N)=O)NC(=O)[C@H](CO)NC(=O)[C@H](CO)NC(=O)[C@H](Cc1c[nH]cn1)NC(=O)[C@H](CCCNC(=N)N)NC(=O)[C@H](CC(C)C)NC(=O)[C@H](Cc1ccccc1)NC(=O)[C@H](CCC(=O)O)NC(=O)[C@H](C)NC(=O)[C@H](CC(C)C)NC(=O)[C@H](CCCNC(=N)N)NC(=O)[C@H](CCC(N)=O)NC(=O)[C@@H](NC(=O)[C@H](C)NC(=O)[C@@H]1CSSC[C@H](NC(=O)[C@H](CCCCN)NC(=O)CC[C@H](NC(=O)CCCCCCCCCCCCCCCCCCC(=O)O)C(=O)O)C(=O)N[C@@H](CC(N)=O)C(=O)N[C@@H]([C@@H](C)O)C(=O)N[C@@H](C)C(=O)N[C@@H]([C@@H](C)O)C(=O)N1)[C@@H](C)O)C(=O)N[C@@H](CC(C)C)C(=O)N1CCC[C@H]1C(=O)N1CCC[C@H]1C(=O)N[C@H](C(=O)N[C@@H](CC(N)=O)C(=O)N[C@H](C(=O)NCC(=O)N[C@@H](CO)C(=O)N[C@@H](CC(N)=O)C(=O)N[C@H](C(=O)N[C@@H](Cc1ccc(O)cc1)C(N)=O)[C@@H](C)O)C(C)C)[C@@H](C)O` ({C20 diacid-γGlu}-KCNTATCATQRLAEFLRHSSNNFGPILPPTNVGSNTY-NH2; disulfide 2-7), the EC50 in data set [1] is 100 pM; in data set [2], 447 pM. The Ratio EC50 in the data set listed under Homo sapiens [3] was determined as 4; in the data set filed under Rattus norvegicus [13] it was 0.5. Besides, the half-inhibitory concentration (IC50) turned out to be 350 pM in data set [14], 811 pM in data set [6], 532 pM in data set [8] and 2060 pM in [9]. Further, the Ratio IC50 in the data set filed under Rattus norvegicus [10] worked out at 4. Besides, the solubility in data set [15] and in data set [16] was 200 µM (≈ 895 µg/mL) in each case. The TIME on Insulin (Homo sapiens) [11] is 45 h. The Activity was found to be 85% on Insulin (Homo sapiens) [12], 30% with Rattus norvegicus [17] and 8% with Rattus norvegicus [18].

Turning to `CC[C@H](C)[C@H](NC(=O)[C@@H]1CCCN1C(=O)CNC(=O)[C@H](Cc1ccccc1)NC(=O)[C@H](CC(N)=O)NC(=O)[C@H](CC(N)=O)NC(=O)[C@H](CO)NC(=O)[C@H](CO)NC(=O)[C@H](CCCNC(=N)N)NC(=O)[C@@H](NC(=O)[C@H](CC(C)C)NC(=O)[C@H](Cc1ccccc1)NC(=O)[C@H](CCC(=O)O)NC(=O)[C@H](C)NC(=O)[C@H](CC(C)C)NC(=O)[C@H](CCCNC(=N)N)NC(=O)[C@H](CCC(N)=O)NC(=O)[C@@H](NC(=O)[C@H](C)NC(=O)[C@@H]1CSSC[C@H](NC(=O)[C@H](Cc2cnc[nH]2)NC(=O)CC[C@H](NC(=O)CCCCCCCCCCCCCCCCCCC(=O)O)C(=O)O)C(=O)N[C@@H](CC(N)=O)C(=O)N[C@@H]([C@@H](C)O)C(=O)N[C@@H](C)C(=O)N[C@@H]([C@@H](C)O)C(=O)N1)[C@@H](C)O)C(C)C)C(=O)N[C@@H](CC(C)C)C(=O)N1CCC[C@H]1C(=O)N1CCC[C@H]1C(=O)N[C@H](C(=O)N[C@@H](CC(N)=O)C(=O)N[C@H](C(=O)NCC(=O)N[C@@H](CO)C(=O)N[C@@H](CC(N)=O)C(=O)N[C@H](C(=O)N[C@@H](Cc1ccc(O)cc1)C(N)=O)[C@@H](C)O)C(C)C)[C@@H](C)O` ({C20 diacid-γGlu}-HCNTATCATQRLAEFLVRSSNNFGPILPPTNVGSNTY-NH2; disulfide 2-7), the values for the 50% effective concentration (EC50) in data set [1] and in data set [2] were 83 pM and 125 pM, respectively. Further, the Ratio EC50 in the data set filed under Homo sapiens [3] is 2. Further, the half-inhibitory concentration (IC50) in [14] was found to be 499 pM; in data set [6], 3250 pM; in [8], 27 pM; in [9], 807 pM. Further, the Ratio IC50 in the data set listed under Homo sapiens [7] was determined as 7; in the data set filed under Rattus norvegicus [10], 30. In addition, the solubility stood at 200 µM (≈ 889 µg/mL) in [15]; 200 µM (≈ 889 µg/mL) in data set [16]; 10 µM (≈ 44.5 µg/mL) in data set [19]; 1 µM (≈ 4.45 µg/mL) in data set [20]; 1 µM (≈ 4.45 µg/mL) in data set [21]; 10 µM (≈ 44.5 µg/mL) in data set [22]. Also, at Insulin (Homo sapiens) [11], the TIME was determined as 5 h. Further, the Activity on Insulin (Homo sapiens) [12] was found to be 2%; with Rattus norvegicus [17] it was 56%; in the data set on Rattus norvegicus [18] it was 59%.

By EC50 is commonly meant the concentration giving half of the maximal effect. Broadly, the IC50 is the concentration that gives 50% inhibition. What is called solubility is the concentration that dissolves in the medium under given conditions.
